# Data reported in US20060122267A1, “Compositions and methods for attenuating mitochondria-mediated cell injury” (priority 2003, published 2006).
# Entries after “also recorded” stand apart in the source; their conditions may differ.
# Tests used:
# mitochondrial proteins = test: Biotin-switch analysis of mitochondrial protein S-nitrosation; assay type: biochemical, rat; conditions: for S-nitrosation of entire mitochondrial protein extract, comparison of NO donors: S-nitrosoglutathione 1 mM, DETA-NONOate 2 mM, ONOO- 3 additions of 100 μM, 37° C., 40 minutes
# Description: Rat heart mitochondria were isolated using differential centrifugation (Tompkins, et al. (2005) Biochim. Biophys. Acta PMID: 16278076). Protein was determined by the Folin-phenol method (Lowry, et al. (1951) J. Bio. Chem. 193:265-75) against a standard curve constructed using bovine serum albumin. Mitochondrial incubations and all subsequent steps were performed in the dark. One mg of mitochondrial protein was suspended in 1 mL of mitochondrial respiration buffer (Tompkins, et al. (2005) supra) containing respiratory substrates glutamate (5 mM), malate (2.5 mM) and succinate (5 mM). […] Samples were centrifuged (5 minutes, 14,000×g), and supernatants removed. The pellets were then resuspended in 1 mL of respiration buffer, and centrifuged again. Pellets were frozen in liquid N2 for subsequent analysis. For ONOO^− treatments, 4 μL of 25 mM ONOO^− stock (100 μM final concentration) was added the cap of the reaction tube, the cap quickly closed and the tube shaken immediately. The process was then repeated twice at 30 second intervals, for a total of 3 additions. Mitochondria were then pelleted, washed, and frozen as for S-nitrosoglutathione samples. Complex I activity was assayed as the rotenone-sensitive oxidation of NADH, at 340 nm in the presence of coenzyme Q1 (Borutaite, et al. (2000) supra). Complex IV was assayed by monitoring the cyanide-sensitive first-order oxidation of reduced cytochrome c, at 550 nm according to established methods (Cleeter, et al. (1994) supra).
# For biotin-switch analysis, intact mitochondrial pellets (1 mg protein solubilized in extraction buffer) or chromatography column fractions were analyzed in accordance with known methods (Jaffrey & Snyder (2001) supra). Samples were separated in duplicate on non-reducing SDS-PAGE gels; half the gel was stained with COOMASSIE® blue, and the other half blotted and probed with streptavidin-HRP and ECL™ detection (GE biosciences). Blots and stained gels were aligned, and S-nitrosated proteins excised, trypsinized, and identified by peptide mass fingerprinting. Mass spectra (MALDI-TOF) were analyzed using the MASCOT™ algorithm available on the world-wide web at matrixscience.com.
# [1] = cited from earlier work
# [2] = system: cell and organ models of ischemia-reperfusion; conditions: cited from earlier work
# [3] = system: isolated adult rat cardiomyocytes; test: Cardiomyocyte model of ischemia-reperfusion injury, cell viability by Trypan blue exclusion; assay type: cell-based
# Description: Isolated adult rat cardiomyocytes were subjected to 1 hour ischemia (anoxic, glucose free medium, pH 6.5) followed by 30 minutes reoxygenation (labeled “HR”). Cell viability was assayed by Trypan blue exclusion. […] All data are means±SEM, N>3.
# Adult rat cardiomyocytes were prepared by collagenase perfusion according to standard methods (Dai, et al. (2001) supra), yielding ˜4×10^6 cells per heart, >80% rod-shaped and viable. Incubations were in a shaking water bath at 37° C., each utilizing 5×10^5 cells in 5 mL of the KH buffers described below. For the control, cells were incubated for 2 hours in oxygenated KH buffer (95/5 O2/CO2). For ischemia-reperfusion treatment, cells were subjected to 30 minutes in oxygenated KH buffer, 1 hour in “ischemic” KH buffer (95/5 N2/CO2, pH 6.5, no glucose), and 30 minutes in oxygenated KH buffer. For the ischemia-reperfusion injury and test compound group of cells, ischemia-reperfusion injury was carried out as described above with test compound present during the 30 minute equilibration prior to ischemia-reperfusion and absent during ischemia. […] At the end of each protocol, cell viability was assayed (Trypan blue), and mitochondrial function determined (measurement of ΔΨm with the fluorescent probe TMRE, respiration with an O2 electrode, and S-nitrosothiol content by chemiluminescence and biotin-switch.
# perfused rat hearts = test: Langendorff isolated perfused rat heart model of ischemia-reperfusion injury; conditions: 10 μM infused during equilibration; 25 minutes global ischemia, 30 minutes reperfusion; dark
# Description: Hearts were perfused in constant flow mode, with Krebs-Henseleit (KH) buffer, gassed with 95/5 O2/CO2. Following equilibration (during which S-nitroso-2-mercaptopropylglycine was infused at 10 μM final concentration), global ischemia was imposed for 25 minutes, followed by 30 minutes of reperfusion. Cardiac functional parameters were measured throughout, with a left-ventricular balloon attached to a pressure transducer. Recovery of rate pressure product (RPP, i.e., left ventricular developed pressure multiplied by heart rate) was greater in S-nitroso-2-mercaptopropylglycine treated hearts. Control hearts in these experiments were subject to dark conditions.
# Rat hearts were perfused according to methods well-known in the art (Digerness, et al. (2003) J. Thorac. Cardiovasc. Surg. 125:863-871), with Krebs-Henseleit (KH) buffer, gassed with 95/5 O2/CO2. […] Cardiac functional parameters (left ventricular pressure, rate pressure product, oxygen consumption, diastolic stiffness, etc.) were measured throughout, and mitochondria were isolated at the end of the procedure. Several mitochondrial parameters are then determined including respiration, Ca^2+ loading capacity, reactive oxygen species generation, permeability transition pore opening threshold, respiratory complex activities (Brookes, et al. (2002) Methods Enzymol. 359:305-319), and protein S-nitrosation as disclosed herein.
# [4] = system: isolated adult rat cardiomyocytes; test: Mitochondrial H+ leak in cardiomyocytes (respiration divided by TMRE fluorescence) after ischemia-reperfusion; assay type: cell-based; conditions: doses that protect cardiomyocyte viability
# Description: Cardiomyocyte respiration rate was measured with an oxygen electrode, and membrane potential with the fluorescent dye TMRE (20 nM) in a fluorimeter. H^+ leak is essentially the amount of work the respiratory chain must do to maintain a given membrane potential, and experimentally is derived by dividing respiration by TMRE fluoresence. […] All data are means±SEM, N>3.
# Adult rat cardiomyocytes were prepared by collagenase perfusion according to standard methods (Dai, et al. (2001) supra), yielding ˜4×10^6 cells per heart, >80% rod-shaped and viable. Incubations were in a shaking water bath at 37° C., each utilizing 5×10^5 cells in 5 mL of the KH buffers described below. For the control, cells were incubated for 2 hours in oxygenated KH buffer (95/5 O2/CO2). For ischemia-reperfusion treatment, cells were subjected to 30 minutes in oxygenated KH buffer, 1 hour in “ischemic” KH buffer (95/5 N2/CO2, pH 6.5, no glucose), and 30 minutes in oxygenated KH buffer. […] At the end of each protocol, cell viability was assayed (Trypan blue), and mitochondrial function determined (measurement of ΔΨm with the fluorescent probe TMRE, respiration with an O2 electrode, and S-nitrosothiol content by chemiluminescence and biotin-switch.
compound,measurement,setting,value
"O=NOO [ONOO^−, peroxynitrite]","S-nitrosation of entire mitochondrial protein extract, comparison of NO donors",mitochondrial proteins,S-nitrosoglutathione resulted in far more S-nitrosation than DETA-NONOate or ONOO^−
"CC(S)C(=O)NCC(=O)O (stereo not shown) [2-mercaptopropionylglycine, 2-Mercaptopropionylglycine]",bioavailability,[1]; in vivo,bioavailable
same,cellular and mitochondrial distribution,"[1]; radioactive tracer, whole animals",readily enters cells and accumulates in mitochondria
same,concentrations required to elicit protection,[2],0.3 to 1.0 mM
NCCN(CCN)/[N+]([O-])=N/O [DETA-NONOate],"S-nitrosation of entire mitochondrial protein extract, comparison of NO donors",mitochondrial proteins,S-nitrosoglutathione resulted in far more S-nitrosation than DETA-NONOate or ONOO^−
CC(SN=O)C(=O)NCC(=O)O (stereo not shown),protection of cardiomyocyte viability from ischemia-reperfusion injury,"[3]; 10 μM or 20 μM, 1 hour ischemia, 30 minutes reoxygenation",dose-dependent and significant protection
same,protection of cardiomyocyte viability compared with ischemic preconditioning (IPC),"[3]; higher dose, 20 μM",more effective than IPC
same,S-nitrosation of mitochondrial proteins compared with S-nitrosoglutathione,"mitochondrial proteins; same concentrations, 10-100 μM",much greater degree of S-nitrosation of mitochondrial proteins than did S-nitrosoglutathione
same,recovery of rate pressure product (RPP) after ischemia-reperfusion versus control hearts,perfused rat hearts,greater
same,effect on increase in mitochondrial H+ leak induced by ischemia-reperfusion,[4],prevent large increases in H^+ leak; also recorded: protect against the large increase in proton leak
